# Non-standard residues stand in square brackets, D forms with d. Residues, ends and D or L forms follow the SMILES beside them. Gly(octyl) = CCCCCCCC[C@H](N)C(=O)O; hTyr = N[C@@H](CCc1ccc(O)cc1)C(=O)O; hArg = N=C(N)NCCCC[C@H](N)C(=O)O; AllylGly = C=CC[C@H](N)C(=O)O; hLeu = CC(C)CC[C@H](N)C(=O)O; Nle = CCCC[C@H](N)C(=O)O
# Assays:
# Format in all cases: biochemical
# [1] = biological target: T1, porcine pancreatic elastase (Sus scrofa, UniProt P00772); assay: Inhibition of porcine pancreatic elastase (MeOSuc-AAA-pNA hydrolysis); settings: for IC50: 15 nM enzyme, 1 mM substrate, 37° C., pH8, read-out: Porcine pancreatic elastase (PPE) IC50; for hNE/PPE selectivity: ratio of PPE IC50 to hNE IC50
# T1 construct: purchased Sigma, USA
# T1 sequence (P00772 27-266): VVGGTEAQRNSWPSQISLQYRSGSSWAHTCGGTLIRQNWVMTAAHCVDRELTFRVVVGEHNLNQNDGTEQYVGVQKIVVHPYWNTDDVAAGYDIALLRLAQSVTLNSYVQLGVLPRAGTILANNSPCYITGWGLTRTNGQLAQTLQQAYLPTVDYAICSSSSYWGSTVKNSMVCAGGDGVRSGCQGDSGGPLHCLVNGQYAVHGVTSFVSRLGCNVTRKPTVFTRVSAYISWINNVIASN
# Procedure: 2.3. Inhibition of Porcine Pancreatic Elastase
# The ability of the peptides of the invention to inhibit the hydrolysis activity of porcine pancreatic elastase (Sigma, USA) using the synthetic tripeptidic substrate MeOSuc-AAA-pNA (Bachem, Switzerland) was determined as follows:
# (§1) The above substrate (1 mM) and […] porcine pancreatic elastase (15 nM) were incubated at 37° C. with serial dilutions of the peptides (0.5% DMSO final) in assay buffer (50 mM Tris, pH8, 100 mM NaCl, 0.01% Tween20). The release of pNA was followed by monitoring the change in absorbance at 405 nm for 30 minutes. Control assays with the same assay set-up as above, but without peptide, ran linearly. The dose-response data were fitted to the 4-parameter Hill equation providing the IC50 value using Graphpad (Prism 5).
# [2] = biological target: T2, human neutrophil elastase (Homo sapiens, UniProt P08246); assay: Inhibition of human neutrophil elastase (MeOSuc-AAPV-pNA hydrolysis); settings: 10 nM enzyme, 0.3 mM substrate, 37° C., pH 8; read-out: Human neutrophil elastase (hNE) IC50
# T2 construct: purchased Serva Electrophoresis, Germany
# T2 sequence (P08246 30-267): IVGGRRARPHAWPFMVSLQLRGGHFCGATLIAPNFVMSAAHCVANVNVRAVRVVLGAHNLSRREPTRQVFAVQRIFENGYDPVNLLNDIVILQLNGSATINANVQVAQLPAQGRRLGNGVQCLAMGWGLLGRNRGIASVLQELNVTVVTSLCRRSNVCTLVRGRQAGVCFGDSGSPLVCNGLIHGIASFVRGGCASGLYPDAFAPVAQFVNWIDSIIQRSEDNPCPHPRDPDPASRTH
# Procedure: 2.2. Inhibition of Human Neutrophil Elastase
# The ability of the peptides of the invention to inhibit the hydrolysis activity of human neutrophil elastase (Serva Electrophoresis, Germany) using the synthetic tetrapeptidic substrate MeOSuc-AAPV-pNA (Bachem, Switzerland) was determined as follows:
# as §1, with “(0.3” for “(1”, “neutrophil” for “porcine pancreatic”, “(10” for “(15”, “(1%” for “(0.5%”, “pH 8, 300” for “pH8, 100”
# [3] = biological target: T3, human proteinase 3 (Homo sapiens, UniProt P24158); assay: Inhibition of human proteinase 3 (Boc-Ala-Ala-Nva-SBzl); settings: for IC50: 10 nM enzyme, 1 mM substrate, 37° C., pH7.4, read-out: Human proteinase 3 (hPr3) IC50; for hNE/hPr3 selectivity: ratio of hPr3 IC50 to hNE IC50
# T3 construct: purchased Elastin Products Company, USA
# T3 sequence (P24158 28-248): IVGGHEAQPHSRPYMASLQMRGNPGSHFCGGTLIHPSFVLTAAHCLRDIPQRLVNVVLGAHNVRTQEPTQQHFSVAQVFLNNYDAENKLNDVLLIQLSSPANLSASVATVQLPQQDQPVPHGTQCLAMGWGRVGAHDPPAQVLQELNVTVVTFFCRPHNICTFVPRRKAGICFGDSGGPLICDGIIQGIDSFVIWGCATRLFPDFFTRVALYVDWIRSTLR
# Procedure: 2.4. Inhibition of Human Proteinase 3
# The inactivation of human proteinase 3 (Elastin Products Company, USA) by the peptides of the invention using synthetic tripeptidic substrate Boc-Ala-Ala-Nva-SBzl (Elastin Products Company, USA) was determined as follows:
# as §1, with “mM), 4,4′-dithiodipyridine (250 μM)” for “mM)”, “proteinase 3 (10” for “porcine pancreatic elastase (15”, “pH7.4, 150” for “pH8, 100”, “reaction process” for “release of pNA”, “340” for “405”
IC50 [1] [nM],hNE/PPE selectivity [1],IC50 [2] [nM],IC50 [3] [nM],hNE/hPr3 selectivity [3],Structure (SMILES)
530,98,5.4,1520,282,"CCCCCCCC[C@@H]1NC(=O)[C@@H]2CCCN2C(=O)[C@H]2CCCN2C(=O)[C@H]([C@@H](C)O)NC(=O)[C@H](CCCCN)NC(=O)[C@H](Cc2ccc(O)cc2)NC(=O)[C@@H]2CCCN2C(=O)[C@@H]2CCCN2C(=O)[C@H]([C@@H](C)CC)NC(=O)[C@H](CO)NC(=O)[C@H](C)NC(=O)[C@H]([C@@H](C)O)NC(=O)[C@H](CCC(=O)O)NC1=O [Example 2, Cyclo(-OctGly-Glu-Thr-Ala-Ser-Ile-Pro-Pro-Tyr-Lys-Thr-^DPro-Pro-)] (cyclo([Gly(octyl)]ETASIPPYKT[dP]P))"
1750,138,12.7,1710,135,"CC[C@H](C)[C@@H]1NC(=O)[C@H](CO)NC(=O)[C@H](C)NC(=O)[C@H]([C@@H](C)O)NC(=O)[C@H](CCc2ccc(O)cc2)NC(=O)[C@H](CCCNC(=N)N)NC(=O)[C@@H]2CCCN2C(=O)[C@H]2CCCN2C(=O)[C@H](Cc2ccc(O)cc2)NC(=O)[C@H](CCCCN)NC(=O)[C@H](CCC(N)=O)NC(=O)[C@@H]2CCCN2C(=O)[C@@H]2CCCN2C1=O [Example 5, Cyclo(-Arg-hTyr-Thr-Ala-Ser-Ile-Pro-Pro-Gln-Lys-Tyr-^DPro-Pro-)] (cyclo(R[hTyr]TASIPPQKY[dP]P))"
59000,3960,14.9,80200,5383,"C=CC[C@@H]1NC(=O)[C@H]([C@@H](C)O)NC(=O)[C@H](CCC(=O)O)NC(=O)[C@H](CCCNC(=N)N)NC(=O)[C@@H]2CCCN2C(=O)[C@H]2CCCN2C(=O)[C@H]([C@@H](C)O)NC(=O)[C@H](CCCCN)NC(=O)[C@H](CCC(N)=O)NC(=O)[C@@H]2CCCN2C(=O)[C@@H]2CCCN2C(=O)[C@H]([C@@H](C)CC)NC(=O)[C@H](CO)NC1=O [Example 7, Cyclo(-Arg-Glu-Thr-AllylGly-Ser-Ile-Pro-Pro-Gln-Lys-Thr-^DPro-Pro-)] (cyclo(RET[AllylGly]SIPPQKT[dP]P))"
45200,2756,16.4,88100,5372,"CC[C@H](C)[C@@H]1NC(=O)[C@H](CO)NC(=O)[C@H](C)NC(=O)[C@H]([C@@H](C)O)NC(=O)[C@H](CCC(=O)O)NC(=O)[C@H](CCCNC(=N)N)NC(=O)[C@@H]2CCCN2C(=O)[C@H]2CCCN2C(=O)[C@H](CO)NC(=O)[C@H](CCCCN)NC(=O)[C@H](Cc2ccc(O)cc2)NC(=O)[C@@H]2CCCN2C(=O)[C@@H]2CCCN2C1=O [Example 8, Cyclo(-Arg-Glu-Thr-Ala-Ser-Ile-Pro-Pro-Tyr-Lys-Ser-^DPro-Pro-)] (cyclo(RETASIPPYKS[dP]P))"
> 100000,>3333,30,> 100000,>3333,"CC[C@H](C)[C@@H]1NC(=O)[C@H](CO)NC(=O)[C@H](C)NC(=O)[C@H]([C@@H](C)O)NC(=O)[C@H](CCC(=O)O)NC(=O)[C@H](CCCNC(=N)N)NC(=O)[C@@H]2CCCN2C(=O)[C@H]2CCCN2C(=O)[C@H](CCC(C)C)NC(=O)[C@H](CCCCN)NC(=O)[C@H](CCC(N)=O)NC(=O)[C@@H]2CCCN2C(=O)[C@@H]2CCCN2C1=O [Example 10, Cyclo(-Arg-Glu-Thr-Ala-Ser-Ile-Pro-Pro-Gln-Lys-hLeu-^DPro-Pro-)] (cyclo(RETASIPPQK[hLeu][dP]P))"

# The remaining lines, values behind:
Structure (SMILES),IC50 [1] [nM],hNE/PPE selectivity [1],IC50 [2] [nM],IC50 [3] [nM],hNE/hPr3 selectivity [3]
"CCCCCCCC[C@@H]1NC(=O)[C@@H]2CCCN2C(=O)[C@H]2CCCN2C(=O)[C@H](CC(N)=O)NC(=O)[C@H](CCCCN)NC(=O)[C@H](CCC(N)=O)NC(=O)[C@@H]2CCCN2C(=O)[C@@H]2CCCN2C(=O)[C@H]([C@@H](C)CC)NC(=O)[C@H](CO)NC(=O)[C@H](C)NC(=O)[C@H]([C@@H](C)O)NC(=O)[C@H](CCC(=O)O)NC1=O [Example 1, Cyclo(-OctGly-Glu-Thr-Ala-Ser-Ile-Pro-Pro-Gln-Lys-Asn-^DPro-Pro-)] (cyclo([Gly(octyl)]ETASIPPQKN[dP]P))",1550,292,5.3,1810,342
"CCCCCCCC[C@@H]1NC(=O)[C@@H]2CCCN2C(=O)[C@H]2CCCN2C(=O)[C@H](CO)NC(=O)[C@H](CCCCN)NC(=O)[C@H](CCC(N)=O)NC(=O)[C@@H]2CCCN2C(=O)[C@@H]2CCCN2C(=O)[C@H]([C@@H](C)CC)NC(=O)[C@H](CO)NC(=O)[C@H](C)NC(=O)[C@H]([C@@H](C)O)NC(=O)[C@H](CCC(=O)O)NC1=O [Example 3, Cyclo(-OctGly-Glu-Thr-Ala-Ser-Ile-Pro-Pro-Gln-Lys-Ser-^DPro-Pro-)] (cyclo([Gly(octyl)]ETASIPPQKS[dP]P))",790,144,5.5,1440,262
"CCCCCCCC[C@@H]1NC(=O)[C@@H]2CCCN2C(=O)[C@H]2CCCN2C(=O)[C@H]([C@@H](C)O)NC(=O)[C@H](CCCCN)NC(=O)[C@H](CCC(N)=O)NC(=O)[C@@H]2CCCN2C(=O)[C@@H]2CCCN2C(=O)[C@H]([C@@H](C)CC)NC(=O)[C@H](CO)NC(=O)[C@H](C)NC(=O)[C@H]([C@@H](C)O)NC(=O)[C@H](CCC(=O)O)NC1=O [Example 4, Cyclo(-OctGly-Glu-Thr-Ala-Ser-Ile-Pro-Pro-Gln-Lys-Thr-^DPro-Pro-)] (cyclo([Gly(octyl)]ETASIPPQKT[dP]P))",2750,348,7.9,2150,272
"CCCC[C@@H]1NC(=O)[C@H](CCCNC(=N)N)NC(=O)[C@@H]2CCCN2C(=O)[C@H]2CCCN2C(=O)[C@H](Cc2ccc(O)cc2)NC(=O)[C@H](CCCCN)NC(=O)[C@H](CCC(N)=O)NC(=O)[C@@H]2CCCN2C(=O)[C@@H]2CCCN2C(=O)[C@H]([C@@H](C)CC)NC(=O)[C@H](CO)NC(=O)[C@H](C)NC(=O)[C@H]([C@@H](C)O)NC1=O [Example 6, Cyclo(-Arg-Nle-Thr-Ala-Ser-Ile-Pro-Pro-Gln-Lys-Tyr-^DPro-Pro-)] (cyclo(R[Nle]TASIPPQKY[dP]P))",2690,174,15.5,2370,153
"CC[C@H](C)[C@@H]1NC(=O)[C@H](CO)NC(=O)[C@H](C)NC(=O)[C@H]([C@@H](C)O)NC(=O)[C@H](CCC(=O)O)NC(=O)[C@H](CCCCNC(=N)N)NC(=O)[C@@H]2CCCN2C(=O)[C@H]2CCCN2C(=O)[C@H]([C@@H](C)O)NC(=O)[C@H](CCCCN)NC(=O)[C@H](CCC(N)=O)NC(=O)[C@@H]2CCCN2C(=O)[C@@H]2CCCN2C1=O [Example 9, Cyclo(-hArg-Glu-Thr-Ala-Ser-Ile-Pro-Pro-Gln-Lys-Thr-^DPro-Pro-)] (cyclo([hArg]ETASIPPQKT[dP]P))",83400,3519,23.7,70100,2958

# Reference: US10723765B2, “Beta-hairpin peptidomimetics as selective elastase inhibitors” (POLYPHOR AG, priority 2013, dated 2020)
